# Measured values from patent US4761414A, “Substituted 1H-pyrimido[1,2-a-]-pyrido[3,4-e]pyrazine 6 oxides” (G. D. Searle & Co., priority 1986, dated 1988).
# Columns and labels:
# Format in all cases: cell-based
# [1] = test system: B. fragilis NCTC 9343; test: MIC/MBC against Bacteroides fragilis strain B; conditions: for MBC: NCTC9343, 99.9% reduction in viable count; for MIC: NCTC9343, 48 h, 48 hours, 37° C., anaerobic
# Description: (§1) The screening panel utilized in this Example consisted of 5 strains of Bacteroides fragilis. All assays were carried out in 96-well microtitre plates. If an isolate was obtained from either a culture collection or clinical source, the isolate was immediately inoculated into Wilkens-Chalgren broth (Oxoid) and incubated at 37° C. in an anaerobic chamber in an atmosphere of 85% nitrogen, 10% carbon dioxide, and 5% hydrogen for 48 hours. At the end of this time, the viable count was about 10^12 organisms/ml broth. A 1 ml aliquot of each culture was placed in an ampoule and quick frozen in acetone-dry ice mixture and stored in liquid nitrogen. When an inoculum was utilized in an assay, one of the ampoules was thawed and diluted with fresh broth to yield a suspension having a count of 5×10^5 organisms/ml. A 100 μl aliquot of this suspension was inoculated into each well of the microtitre plate. A 2 mg sample of the test compound was dissolved in 0.2 ml of a suitable solvent such as dimethylsulfoxide, polyethylene glycol 200 or methanol. […] After addition of the test solution the final inoculum level was 10^5 cells/ml. The plates were incubated for 48 hours at 37° C. in the anaerobic chamber. The Minimum Inhibitory Concentration (MIC) was read visually. The MIC is defined as the lowest concentration at which there is no detectable growth. The Minimum Bactericidal Concentration (MBC) was determined by taking 50 μl aliquot from each well and placing it in fresh medium. […] The strains of Bacteroides fragilis utilized in the above procedure are identified by letter in accordance with the following legend: |B B. fragilis NCTC 9343
# [2] = test system: B. fragilis WS-1; test: MIC/MBC against Bacteroides fragilis strain E; conditions: for MBC: WS1, 99.9% reduction in viable count; for MIC: WS1, 48 h, 48 hours, 37° C., anaerobic
# Description: as §1, with “|E” for “|B”, “WS-1*” for “NCTC 9343”
# [3] = test system: Clostridium perfringens NCTC 523; test: microbe, parasite or virus in culture; conditions: Clostridium perfringens, NCTC523, Clostridium perfringens NCTC 523; procedures of Example 40
# [4] = test system: Campylobacter fetus ss. jejuni ATCC 29428; test: MIC vs panel of anaerobes; conditions: ATCC29428, procedures of Example 40
# [5] = test system: Bacteroides melanogenicus NCTC 9336; test: MIC vs panel of anaerobes; conditions: NCTC9336, procedures of Example 40
# [6] = test system: Peptococcous magnus; test: MIC vs panel of anaerobes; conditions: procedures of Example 40
# [7] = test system: Peptostreptococcus; test: MIC vs panel of anaerobes; conditions: procedures of Example 40
SMILES,MBC [1],MIC [1],MBC [2],MIC [2],MIC [3],MIC [4],MIC [5],MIC [6],MIC [7]
"Cc1ccc(C2=[N+]([O-])c3cccnc3N3CC(C)(C)CN=C23)cc1 [Example 20, 2,3-Dihydro-2,2-dimethyl-5-(4-methylphenyl)-1H-pyrimido[1,2-a]pyrido[3,2-e]pyrazine 6-oxide]",6.2 µg/mL,6.2 µg/mL,< 0.8 µg/mL,1.5 µg/mL,1.5 µg/mL,25 µg/mL,50 µg/mL,25 µg/mL,50 µg/mL
"CC1(C)CN=C2C(c3ccccc3)=[N+]([O-])c3ccncc3N2C1 [Example 14, 2,3-Dihydro-2,2-dimethyl-5-phenyl-1H-pyrimido[1,2-a]pyrido[4,3-e]pyrazine 6-oxide]",6.2 µg/mL,3.1 µg/mL,3.1 µg/mL,3.1 µg/mL,25 µg/mL,100 µg/mL,100 µg/mL,100 µg/mL,100 µg/mL
